The subject of the test is tail flick model for nociceptive pain in mice. Put plainly: Tail flick test for nociceptive pain. It is filed as in vivo. Particulars: for Mean latency time Post-treatment: 30 minutes after administration; for Mean latency time Pre-treatment: baseline a day before. As for the experimental part:
In the present study the analgesic effect of the substantially pure enantiomers E1 and E2 was evaluated using the tail flick model for nociceptive pain in mice.
The experiment was performed using male ICR strain 7 weeks old mice (25-27 g) (supplied by Harlan Israel, Ltd.)
Response to pain was assessed using the tail flick method which utilizes an Ugo Basile tail flick instrument. The animal is placed and held gently on the Ugo Basile tail flick (TF) instrument surface with the tail straight back and above a photoelectric cell that served as heat source. The heat source and timer are turned on by a foot pedal press, and automatically switch off when the animal flicks its tail off the emitter. Latency is measured and analyzed as an analgesic effect.
Description of the Study: The baseline tail flick was measured a day before the experiment started. On the day of the experiment, animal body weights were first measured followed by the IP administration of the test items (vehicle, morphine, NRD 13 S E1 and E2). 30 minutes after administration of the test items, the animals were subjected to the tail-flick testing. The tail-flick experiments were followed by blood sampling of all groups. The experiment was terminated after spinal cords and brains of all groups have been collected.
Statistics and Data Evaluation: All parameters are represented as means and standard error of the mean (SEM). Data was analyzed using a two tailed, unpaired T-test to compare each treatment group to the Vehicle treated animals. A two-tailed, paired T-test was used to compare the pre-treatment and post-treatment of each treatment group. Probability values p<0.01 and p<0.05 are considered significant.
In general terms: Thermal pain tests record how soon the animal reacts.

As for `CC(O)COCC(Cc1ccc(O)cc1)NC(=O)CCc1ccccc1` (single isomer, unassigned) [E1], the “increase of latency time between pretreatment and post treatment” value (3 mg/kg IP) is given as “not statistically significant”. In addition, under “3 mg/kg IP”, the “reducing pain when compared to the Vehicle” value is on record as “not significantly active in reducing pain”. Also, the “Mean latency time Post-treatment” value reads like this: (3 mg/kg IP (group 3)) 9.53 ± 0.85 s; (10 mg/kg IP (groups 4, 6)) 10.63 ± 0.64 s; (20 mg/kg IP (group 5)) 10.65 ± 0.81 s. For the same molecule, the “Mean latency time Pre-treatment” value was determined as 7.62 ± 0.74 s (3 mg/kg IP (group 3)); 8.16 ± 0.39 s (10 mg/kg IP (groups 4, 6)); 7.58 ± 0.41 s (20 mg/kg IP (group 5)). Also, the “conclusion: pain relief activity” value (dose of 3 mg/kg) is reported as “significant pain relief activity only in the calculated difference”. For the same molecule, under “doses of 10 mg/kg and 20 mg/kg”, the “conclusion: reducing pain compared to the Vehicle treated group” value is “active in reducing pain”. For the same molecule, for the setting “in particular at doses of 10 and 20 mg/kg (p<0.01)”, the “pain relief activity by difference between pre- and post-treatment latency times vs. Vehicle” value was “significant pain relief activity”. For the same molecule, the “pain analgesic in animal models of pain” value (summary statement, listed as (S,S) enantiomer) is “effective”.

Values taken from patent publication US9381173B2, “Isolated stereoisomeric forms of (S)2-N(3-O-(propan 2-Ol)-1-propyl-4-hydroxybenzene)-3-phenylpropylamide” (Novaremed Ltd., priority 2011, dated 2016).
